Source: article doi:10.1101/2024.06.25.600616, “Presynaptic GABAA receptors control integration of nicotinic input onto dopaminergic axons in the striatum” (bioRxiv, 2024)

Test system: T1, nicotinic acetylcholine receptors (nAChRs) on dopaminergic axons (likely beta2 subunit-containing)
T1 construct: gene Chrnb2; native receptor on dopaminergic axons; with α4 and/or α6 nAChR subunits (native heteromer, not resolved)
Test: whole-cell axonal recording of ACh-puff depolarizations; IC50 from jGCaMP8s nicotinic component in striatal slices
Parameters: species or system Mus musculus

C=C(C)[C@@H]1[C@H]2OC(=O)[C@@H]1[C@]1(O)C[C@H]3OC34C(=O)O[C@H]2[C@@]41C.CC(C)(O)[C@@H]1[C@H]2OC(=O)[C@@H]1[C@]1(O)C[C@H]3OC34C(=O)O[C@H]2[C@@]41C (stereo partly shown) [picrotoxin]
IC50: 108 µM
